Results published in US20220177484A1, “MACROCYCLES WITH ANTIOXIDANT AND NEUROPROTECTIVE ACTIVITIES” (INSTITUTO BIOMAR, S.A, priority 2019, published 2022).

Columns and labels:
[1] = tested on: cortical primary neurons (from C57BL6/J mice); assay: H2O2 production in neurons after excitotoxic NMDA stimulus (Amplex Red); assay type: cell-based; conditions: 100 μM NMDA 10 min, then compound 0.1, 1, 5 μM (FIG. 5)
Procedure: (§1) For NMDA receptors activation, neurons at 8 days in vitro were incubated with 100 μM NMDA for 10 minutes. Neurons were then washed and further incubated for 4 hours in culture medium with DMSO only (DMSO empty bar), DMSO and NMDA (DMSO filled bar) and with increasing quantities of GKK1032C, GKK1032, Pyrrocidine A, Pyrrocidine B, CL0661, CL0667 and CL0670. Concentrations of 0.1 μM, 1 μM, 5 μM. *: p-value <0.05 vs. DMSO+NMDA (student's test).
(§2) Experiments were performed in […] cortical primary neurons, obtained as was previously described (Herrero-Mendez A. et al., Nat. Cell. Biol. 11:747-752, 2009). After 7 or 8 days in B27-MAO culture, neurons (from C57BL6/J mice) were incubated in the presence of N-methyl-D-aspartate (NMDA, a H2O2 production promoter; 100 μM) for 10 minutes, followed by a PBS washing step and submitted to a 24-hour B27 incubation step in the absence (DMSO) or presence of increasing amounts of GKK1032C, GKK1032, Pyrrocidine B, Pyrrocidine A, CL0661, CL0665, CL0667 and CL0670 (0.1 μM, 1 μM and 5 μM). B27-MAO stands for Neurobasal medium, supplemented with B27 supplement in the absence of antioxidants (minus antioxidants, MAO).
The release of H2O2 was measured using the fluorescent method Amplex© Red hydrogen peroxide/peroxidase assay kit (Invitrogen, catalog number A22188) using a multiwell fluorescence reader (Varioskan, Thermo Scientific).
(§3) The data are presented as the mean values±standard deviation of the mean from n=3.

[2] = tested on: cortical primary neurons (from C57BL6/J mice); assay: Caspase-3 activity (neuronal apoptosis) after excitotoxic NMDA stimulus; assay type: cell-based; conditions: 100 μM NMDA 10 min, then 24 h with compound 0.1, 1, 5 μM (FIG. 6)
Procedure: as §1, with “24” for “4”, “Pyrrocidine” for “Pyrrocidine A, Pyrrocidine”, “CL0661, CL0665,” for “CL0661,”, “pvalue” for “p-value”
as §2
Neuronal apoptosis was determined by measuring caspase-3 activity (Veas-Perez de Tudela et al. Sci Rep 5:18180; doi:10.1038/srep18180 (2015).
as §3

C57BL6/J male mice [3] = assay: Rotarod test in 3-nitropropionic acid chemical model of Huntington's disease; assay type: in vivo; conditions: group II injected with GKK1032C and CL0670, once-daily 150 mg/kg for 3 days, plus 3-nitropropionic acid 50 mg/kg twice daily; after two administrations (FIG. 15)
Procedure: Compound I and CL0670 injections were performed at day 1 and day 2. 3-nitropropionic acid injections were performed at days 1, 1.5, 2, 2.5, 3 and 3.5. The shown data points were obtained 2 hours after the injections. p-value<0.05 vs. control (student's test).
(§4) A chemical model of Huntington's disease was conducted to evaluate the capacity of compound I and CL0670 in protecting neurons. This is achieved by intraperitoneal injection of 3-nitropropionic acid which induces neuronal oxidative stress by inhibiting the succinate dehydrogenase enzyme.
(§5) 8-weeks old C57BL6/J male mice were divided into 4 groups.
(§6) Mice in group I (4 mice) were injected with GKK1032C and CL0670 (once-daily dose of 150 mg/kg for 3 days).
(§7) Mice in group II (5 mice) were injected with GKK1032C and CL0670 (once-daily dose of 150 mg/kg for 3 days) and with 3-nitropropionic acid (twice daily dose of 50 mg/kg for 3 days). In the case of group II, 3-nitropropionic acid was injected two hours and twelve hours after injection with GKK1032C and CL0670.
(§8) Mice in group III (5 mice) were injected with 3-nitropropionic acid (twice daily dose of 50 mg/kg for 3 days).
(§9) Mice in group IV (6 mice) were injected with vehicle only.
The mice were submitted to the rotarod test once-daily, 2 hours after the injections. […]

C57BL6/J male mice [4] = assay: Stroke size after Middle Cerebral Artery occlusion (tetrazolium chloride); assay type: in vivo; conditions: for protection of the stroke volume caused by the Middle Cerebral Artery occlusion: GKK1032C and CL0670 10 mg/kg intravenously (FIG. 19); for percentage averaged stroke volume: mice treated with GKK1032C and CL0670 10 mg/kg intravenously after MCA occlusion, untreated ischemia ˜48%
Description: FIG. 19 is the graphical representation of the volume of the cerebral stroke of mice submitted to Middle Cerebral Artery occlusion effect (empty bar) and of mice submitted to Middle Cerebral Artery occlusion and administration of Compound I and CL0670 (solid bar). *: p-value<0.05 vs. ischemia (student's test).
(§10) Middle Cerebral Artery occlusion involves temporarily or permanently restricting MCA blood flow to the cortex and striatum. The cerebral ischemic model of stroke is commonly used to assess ischemic injury in the brain. Occlusion of the middle cerebral artery (MCA) leads to a reduction of cerebral blood flow in both the striatum and the cortex. It is a highly reproducible model that results in brain damages similar to those occurring in human stroke.
(§11) Compounds GKK1032C and CL0670 were administered intravenously at a dose of 10 mg/kg. 11-week old C57BL6/J male mice were divided into 3 groups of 7 mice each: mice submitted to Middle Cerebral Artery occlusion (ischemia), mice submitted to Middle Cerebral Artery occlusion and administration of GKK1032C and CL0670.
(§12) All mice were firstly trained in the rotarod for 3 consecutive days. After this period, the mice were put to sleep with sevoflurane and submitted to surgery. Occlusion was performed by maintain the surgical filament occluding the middle cerebral artery for 30 minutes. Once removed, GKK1032C and CL0670 were injected at the jugular vein. 24 hours after reanimation, the animals were submitted to the rotarod test.
To compare the neuroprotective effect caused by GKK1032C and CL0670 to the motor coordination of mice and the cerebral damage caused by the chirurgical procedure, the animals were sacrificed, and the stroke size measured by visual inspection after treatment with tetrazolium chloride. […] The data confirms that GKK1032C and CL0670 are excellent neuroprotector agents against stroke.

C57BL6/J male mice [5] = assay: Open field test in 3-nitropropionic acid chemical model of Huntington's disease; assay type: in vivo; conditions: mice injected with GKK1032C and CL0670, once-daily 150 mg/kg (FIG. 16)
Procedure: GKK1032C and CL0670 injections were performed at day 1, day 2 and day 3. 3-nitropropionic acid injections were performed at days 1, 1.5, 2, 2.5, 3 and 3.5. The shown data points were obtained 4 hours after the injections. p-value<0.05 vs. control (student's test).
as §4, §5, §6, §7, §8, §9

C57BL6/J male mice [6] = assay: Rotarod test after Middle Cerebral Artery occlusion (stroke model); assay type: in vivo; conditions: GKK1032C and CL0670 10 mg/kg intravenously (jugular vein) after 30 min occlusion; rotarod 24 hours after reanimation; untreated stroke impairment ˜75%
Description: as §10, §11, §12

| Compound | H2O2 production in neuron cells after NMDA [1] | neuronal apoptosis (caspase-3 activity) after NMDA [2] | motor discoordination (rotarod) induced by 3-nitropropionic acid (C57BL6/J male mice [3]) | protection of the stroke volume caused by the Middle Cerebral Artery occlusion (C57BL6/J male mice [4]) | percentage averaged stroke volume (C57BL6/J male mice [4]) [%] | number of line crossings (open field), 3-nitropropionic acid model (C57BL6/J male mice [5]) | time spent in central square of the arena (open field), 3-nitropropionic acid model (C57BL6/J male mice [5]) | recovery of motor coordination (rotarod) of mice with stroke (C57BL6/J male mice [6]) [%] |
| --- | --- | --- | --- | --- | --- | --- | --- | --- |
| C=CC1(C)C=C(C)C2C3C(Oc4ccc(cc4)CC4C(=O)NC(O)C4C(=O)C31)C1C(C)CC(C)CC21C (stereo not shown) [CL0670] | successful in preventing H2O2 from being produced | effective in protecting neuron cells against apoptosis | prevent partially | roughly 18% | 39.5 | increased | increased | ~17 |
| C=CC1(C)C=C(C)C2C3C(Oc4ccc(cc4)CC4(O)NC(=O)C5(OC45)C(=O)C31)C1C(C)CC(C)CC21C (stereo not shown) [Compound I] | successful in preventing H2O2 from being produced | effective in protecting neuron cells against apoptosis | prevent partially | roughly 18% | 39.5 | increased | increased | ~17 |
